We go through 9 molecules from patent US20120202690A1, “HERBICIDAL COMPOUNDS” (SYNGENTA LIMITED, priority 2009, published 2012).

Holding throughout (assay type): in vivo
Assay [1] deals with Setaria faberi (SETFA). Description: Pre-emergence biological efficacy, glasshouse, 1000 g/ha, evaluated after 13 days (100=total damage to plant; 0=no damage to plant). As to conditions: Setaria faberi, 312 h, rate 1,000 g/ha, read-out: Percentage damage caused to weed species, pre-emergence, SETFA. How it is done:
(§1) Seeds of Alopecurus myosuroides (ALOMY), Setaria faberi (SETFA), Echinochloa crus-galli (ECHCG), Solanum nigrum (SOLNI), Amaranthus retroflexus (AMARE) and Ipomoea hederaceae (IPOHE) were sown in standard soil in pots. […] The test plants were then grown under controlled conditions in the glasshouse (at 24/16° C., day/night; 14 hours light; 65% humidity) and watered twice daily. […]

In assay [2] the test system is Amaranthus retroflexus (AMARE). Described as above. As to conditions: Amaranthus retroflexus, 312 h, rate 1,000 g/ha, read-out: Percentage damage caused to weed species, pre-emergence, AMARE. How it is done: as §1
Assay [3] concerns Alopecurus myosuroides (ALOMY). Described as above. The settings on record: Alopecurus myosuroides, 312 h, rate 1,000 g/ha, read-out: Percentage damage caused to weed species, pre-emergence, ALOMY. On the procedure:
as §1

In assay [4] the test system is Echinochloa crus-galli (ECHCG). Described as above. As to conditions: Echinochloa crus-galli, 312 h, rate 1,000 g/ha, read-out: Percentage damage caused to weed species, pre-emergence, ECHCG. On the procedure: as §1
The subject of assay [5] is Solanum nigrum (SOLNI). Described as above. The settings on record: Solanum nigrum, 312 h, rate 1,000 g/ha, read-out: Percentage damage caused to weed species, pre-emergence, SOLNI. On the procedure: as §1
In assay [6] the test system is Ipomoea hederaceae (IPOHE). The description is as above. As to conditions: Ipomoea, 312 h, rate 1,000 g/ha, read-out: Percentage damage caused to weed species, pre-emergence, IPOHE. On the procedure:
as §1

The test system of assay [7] is Setaria faberi (SETFA). Description: Post-emergence biological efficacy, glasshouse, 500 or 1000 g/ha, evaluated after 13 days (100=total damage to plant; 0=no damage to plant). The settings on record: Setaria faberi, 312 h, rate 1,000 g/ha, read-out: Percentage damage caused to weed species, post-emergence, SETFA. On the procedure: (§2) Seeds of Alopecurus myosuroides (ALOMY), Setaria faberi (SETFA), Echinochloa […]), Solanum nigrum (SOLNI), Amaranthus retroflexus (AMARE) and Ipomoea hederaceae (IPOHE) were sown in standard soil in pots. […] The test plants were then grown on under controlled conditions in a glasshouse (at 24/16° C., day/night; 14 hours light; 65% humidity) and watered twice daily. […]

The test system of assay [8] is Amaranthus retroflexus (AMARE). The assay is described as above. The settings on record: Amaranthus retroflexus, 312 h, rate 1,000 g/ha, read-out: Percentage damage caused to weed species, post-emergence, AMARE. How it is done: as §2
Assay [9] has as its system Alopecurus myosuroides (ALOMY). Described as above. The settings on record: Alopecurus myosuroides, 312 h, rate 1,000 g/ha, read-out: Percentage damage caused to weed species, post-emergence, ALOMY. On the procedure: as §2
Assay [10] relates to Solanum nigrum (SOLNI). The assay is described as above. The settings on record: Solanum nigrum, 312 h, rate 1,000 g/ha, read-out: Percentage damage caused to weed species, post-emergence, SOLNI. On the procedure: as §2
Assay [11] relates to Ipomoea hederaceae (IPOHE). The description is as above. As to conditions: Ipomoea, 312 h, rate 1,000 g/ha, read-out: Percentage damage caused to weed species, post-emergence, IPOHE. How it is done: as §2
Assay [12] has as its system Echinochloa crusgaffi (ECHCG). Described as above. As to conditions: Echinochloa, 312 h, rate 1,000 g/ha, read-out: Percentage damage caused to weed species, post-emergence, ECHCG. On the procedure: as §2

Turning to `Cc1c[nH]c2nc(C3CC3)nc(C(=O)O)c12` [Compound 1-3, 4-Carboxy-2-cyclopropyl-5-methyl-7H-pyrrolo[2,3-d]pyrimidine], the pest or weed control at 1000 g/ha came out at 10% in the assay with Setaria faberi (SETFA) [1]; 50% in [2]; 0% in [3]; 0% in assay [4]; 20% in the assay with Solanum nigrum (SOLNI) [5]; 100% in assay [6]. Besides, the pest or weed control at 1000 g/ha turned out to be 0% in the assay with Setaria faberi (SETFA) [7]; 100% in [8]; 0% in assay [9]; 80% in the assay with Solanum nigrum (SOLNI) [10]; 50% in assay [11]; 0% in [12].
As for `COC(=O)c1nc(C2CC2)nc2[nH]cc(C)c12` [Compound 1-4, 2-Cyclopropyl-4-methoxycarbonyl-5-methyl-7H-pyrrolo[2,3-d]pyrimidine], the pest or weed control at 1000 g/ha was 30% with Setaria faberi (SETFA) [1]; 90% in [2]; 10% in assay [3]; 30% in [4]; 90% with Solanum nigrum (SOLNI) [5]; 60% in [6]. Besides, the pest or weed control at 1000 g/ha is 80% with Setaria faberi (SETFA) [7]; 100% in assay [8]; 10% in assay [9]; 90% in the assay with Solanum nigrum (SOLNI) [10]; 70% in [11]; 70% in assay [12].
With `COC(=O)c1nc(C2CC2)nc2[nH]c(C)cc12` [Compound 1-6, 2-cyclopropyl-4-methoxycarbonyl-6-methyl-7H-pyrrolo[2,3-d]pyrimidine], the pest or weed control at 1000 g/ha (with Setaria faberi (SETFA) [1]; in assay [2]; in assay [3]; in assay [4]; in the assay with Solanum nigrum (SOLNI) [5]; in [6]) was 0% each time. Further, the pest or weed control at 1000 g/ha (in the assay on Setaria faberi (SETFA) [7]; in assay [8]; in assay [9]; in the assay with Solanum nigrum (SOLNI) [10]; in assay [11]; in assay [12]) was 0% throughout.
As for `COC(=O)c1nc(-c2ccc(Cl)c(F)c2)nc2[nH]cc(C)c12` [Compound 1-20, 2-(4-Chloro-3-fluorophenyl)-4-methoxycarbonyl-5-methyl-7H-pyrrolo[2,3-d]pyrimidine], the pest or weed control at 1000 g/ha with Setaria faberi (SETFA) [1] was determined as 0%; in [2], 50%; in [3] it was 0%; in assay [4] it was 0%; in the assay on Solanum nigrum (SOLNI) [5], 0%; in assay [6], 0%. Further, the pest or weed control at 1000 g/ha came to 0% in the assay on Setaria faberi (SETFA) [7]; 70% in assay [8]; 0% in assay [9]; 70% in the assay on Solanum nigrum (SOLNI) [10]; 60% in [11]; 0% in [12].
In the case of `COC(=O)c1nc(-c2ccc(Cl)c(F)c2)nc2[nH]c(C)cc12` [Compound 1-22, 2-(4-Chloro-3-fluorophenyl)-4-methoxycarbonyl-6-methyl-7H-pyrrolo[2,3-d]pyrimidine], the pest or weed control at 1000 g/ha (with Setaria faberi (SETFA) [1]; in assay [2]; in assay [3]; in assay [4]; with Solanum nigrum (SOLNI) [5]; in assay [6]) was 0% in each case. The pest or weed control at 1000 g/ha came out at 10% with Setaria faberi (SETFA) [7]; 20% in assay [8]; 10% in assay [9]; 30% in the assay on Solanum nigrum (SOLNI) [10]; 40% in assay [11]; 0% in assay [12].
Consider `COc1c(Cl)ccc(-c2nc(C(=O)O)c3cc[nH]c3n2)c1F` [Compound 1-61, 4-Carboxy-2-(4-chloro-2-fluoro-3-methoxyphenyl)-7H-pyrrolo[2,3-d]pyrimidine], for which the pest or weed control at 1000 g/ha worked out at 0% in the assay on Setaria faberi (SETFA) [1]; 0% in assay [3]; 0% in assay [4]; 0% in [6]; 40% with Setaria faberi (SETFA) [7]; 100% in assay [8]. For the same molecule, the pest or weed control at 1000 g/ha is 10% in assay [9], 70% in the assay with Solanum nigrum (SOLNI) [10], 70% in assay [11] and 20% in [12].
Take `COc1c(Cl)ccc(-c2nc(C(=O)OCc3ccccc3)c3c(C)c[nH]c3n2)c1F` [Compound 1-86, 4-Benzyloxycarbonyl-2-(4-chloro-2-fluoro-3-methoxyphenyl)-5-methyl-7H-pyrrolo[2,3-d]pyrimidine]: the pest or weed control at 1000 g/ha amounted to 0% with Setaria faberi (SETFA) [1]; 0% in [3]; 0% in [4]; 10% in the assay on Solanum nigrum (SOLNI) [5]; 0% in [6]; 10% in the assay with Setaria faberi (SETFA) [7]. For the same molecule, the pest or weed control at 1000 g/ha in assay [8] is 40%; in assay [9], 0%; with Solanum nigrum (SOLNI) [10] it was 60%; in assay [11] it was 30%; in assay [12], 0%.
Regarding `Cc1cc2c(C(=O)O)nc(-c3ccc(Cl)c(F)c3)nc2n1Cc1ccccc1[N+](=O)[O-]` [Compound 8-21, 4-Carboxy-2-(4-chloro-3-fluorophenyl)-6-methyl-7-(2-nitrophenyl-methyl)-7H-pyrrolo[2,3-d]pyrimidine], the pest or weed control at 1000 g/ha in the assay on Setaria faberi (SETFA) [1] is 20%; in [3], 0%; in assay [4] it was 0%; in the assay with Solanum nigrum (SOLNI) [5], 0%; in assay [6] it was 0%; in the assay on Setaria faberi (SETFA) [7], 0%. Also, the pest or weed control at 1000 g/ha was 0% in [8]; 10% in assay [9]; 20% with Solanum nigrum (SOLNI) [10]; 10% in [11]; 0% in assay [12].
As for `COC(=O)c1nc(-c2ccc(Cl)c(OC)c2F)cc2c1c(C)cn2C(C)=O` [Compound 36-64, 6-(4-Chloro-2-fluoro-3-methoxyphenyl)-4-methoxycarbonyl-3-methyl-1-methylcarbonyl-1H-pyrrolo[3,2-c]pyridine], the pest or weed control at 1000 g/ha in the assay with Setaria faberi (SETFA) [1] was found to be 0%; in assay [3], 0%; in assay [4], 0%; in the assay on Solanum nigrum (SOLNI) [5], 50%; in [6], 20%; in the assay with Setaria faberi (SETFA) [7], 10%. Further, the pest or weed control at 1000 g/ha in assay [8] was determined as 70%; in assay [9] it was 0%; in the assay with Solanum nigrum (SOLNI) [10], 80%; in assay [11], 70%; in assay [12], 0%.
